Test [1] is described as follows: Displacement of mant-GTP from Bacillus subtilis FtsZ by spectrofluorometric assay.
Test [2] deals with Staphylococcus aureus. As to the kind of experiment: Antibacterial activity against methicillin-resistant Staphylococcus aureus ATCC BAA-41 after 18 hrs by broth microdilution method. The class given is functional. The conditions noted are these: ATCC BAA-41, 18 h. For orientation: Broth dilution looks for growth in wells or tubes with falling amounts of substance.
Test [3] relates to Staphylococcus aureus. Put plainly: Antibacterial activity against methicillin-sensitive Staphylococcus aureus after 18 hrs by broth microdilution method. The class given is functional.
Test [4] deals with Escherichia coli. As to the kind of experiment: Antibacterial activity against Escherichia coli ATCC 25922 after 18 hrs by broth microdilution method. The following applies: ATCC 25922, 18 h. In kind it is functional.
The subject of a further test is Klebsiella pneumoniae. Put plainly: Antibacterial activity against Klebsiella pneumoniae ATCC BAA-1144 after 18 hrs by broth microdilution method. In kind it is functional. The conditions noted are these: ATCC BAA-1144, 18 h.
For the next test, the system named is Enterococcus faecalis. Put plainly: Antimicrobial activity against vancomycin-sensitive Enterococcus faecalis after 18 hrs by broth microdilution method. In kind it is functional.
The subject of test [5] is Staphylococcus aureus. As to the kind of experiment: Antibacterial activity against Staphylococcus aureus ATCC 29213 after 18 hrs by broth microdilution assay. In kind it is functional. The conditions noted are these: ATCC 29213, 18 h.
Test [6] concerns the target T1, Cell division protein FtsZ (Staphylococcus aureus, UniProt P0A031).
T1 sequence (P0A031 whole entry): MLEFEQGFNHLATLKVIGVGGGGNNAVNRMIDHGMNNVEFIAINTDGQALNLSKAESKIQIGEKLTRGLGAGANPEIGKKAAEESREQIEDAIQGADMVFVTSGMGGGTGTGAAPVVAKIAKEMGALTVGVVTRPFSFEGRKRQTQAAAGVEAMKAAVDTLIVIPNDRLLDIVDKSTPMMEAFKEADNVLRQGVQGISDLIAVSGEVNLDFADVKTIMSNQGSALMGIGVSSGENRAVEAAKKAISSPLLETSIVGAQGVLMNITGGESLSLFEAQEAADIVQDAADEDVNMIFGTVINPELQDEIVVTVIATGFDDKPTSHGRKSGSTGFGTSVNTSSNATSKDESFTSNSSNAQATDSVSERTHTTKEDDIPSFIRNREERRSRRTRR
As to the kind of experiment: Inhibition of Staphylococcus aureus ATCC 29213 N-terminal His6-tagged FtsZ GTPase activity expressed in Escherichia coli BL21(DE3) assessed as reduction in inorganic phosphate release preincubated for 10 mins followed by GTP addition after 30 mins.

The subject of test [7] is Escherichia coli. Put plainly: Antibacterial activity against Escherichia coli ATCC 25922 after 18 hrs by broth microdilution assay. The class given is functional. The following applies: ATCC 25922, 18 h.
Test [8] concerns Mycobacterium tuberculosis. As to the kind of experiment: Antibacterial activity against Mycobacterium tuberculosis TN587 clinical isolates measured every 24 hrs for 7 days by MABA assay. The class given is functional.
In test [9] the test system is Mycobacterium tuberculosis. Put plainly: Antibacterial activity against Mycobacterium tuberculosis W210 clinical isolates measured every 24 hrs for 7 days by MABA assay. In kind it is functional.
The test system of test [10] is Mycobacterium tuberculosis. Put plainly: Antibacterial activity against Mycobacterium tuberculosis H37Rv measured every 24 hrs for 7 days by MABA assay. In kind it is functional. In general terms: Alamar Blue is a resazurin reagent that responds to reducing activity.
Test [11] has as its system Mycobacterium tuberculosis. Put plainly: Antibacterial activity against Mycobacterium tuberculosis NHN382 clinical isolates measured every 24 hrs for 7 days by MABA assay. The class given is functional.
Test [12] in a line: Inhibition of Escherichia coli FtsZ polymerization expressed in Escherichia coli BL21 assessed as reduction in light scattering intensity in presence of GTP by fluorescence spectrometric analysis.
Test [13] in a line: Inhibition of Escherichia coli FtsZ GTPase activity expressed in Escherichia coli BL21 preincubated for 5 mins followed by GTP addition after 15 mins by malachite green based spectrophotometric analysis.
In another test the test system is Bacillus subtilis. Put plainly: Antibacterial activity against Bacillus subtilis. The class given is functional.
The subject of test [14] is Mycobacterium tuberculosis. As to the kind of experiment: In vivo antibacterial activity against Mycobacterium tuberculosis H37Rv infected in GKO-TB mouse assessed as reduction in bacterial load in spleen at 50 mg/kg, ip or po bid for 10 consecutive days. In kind it is functional.
Test [15] has as its system Mycobacterium tuberculosis. As to the kind of experiment: Antibacterial activity against Mycobacterium tuberculosis NHN20 clinical isolates measured every 24 hrs for 7 days by MABA assay. In kind it is functional.
Test [16] concerns Mycobacterium tuberculosis. Put plainly: In vivo antibacterial activity against Mycobacterium tuberculosis str. Erdman infected in C57BL/6 mouse assessed as reduction in bacterial load in lungs at 50 mg/kg, ip bid on day 5 to 14 post infection measured on day 15 post infection. The class given is functional, Erdman = ATCC 35801.
Test [17] has as its system Mycobacterium tuberculosis. Put plainly: Antimycobacterial activity against Mycobacterium tuberculosis H37Rv after 2 weeks. The class given is functional. The conditions noted are these: 336 h.

Values after ≈ are worked out from the molar mass of the structure shown.

As usually defined, the Kd is the constant that tells how readily two partners part at equilibrium. Consider `O=C(Oc1cc(OC(=O)c2cccc(O)c2)cc(-c2ccccc2)c1)c1cccc(O)c1`, for which the Kd in test [1] turned out to be 0.5 µM. In other words, the sub-micromolar range.

As usually defined, the MIC is the lowest concentration found to suppress growth. As for `Cc1nc2ccccc2n1C(=O)/C=C/c1ccc(F)cc1`, the MIC against Staphylococcus aureus [2] lay in the range of 2 to 8 µg/mL (≈ 7.14 to 28.5 µM); with Staphylococcus aureus [3], 2 to 8 µg/mL (≈ 7.14 to 28.5 µM); in the test with Escherichia coli [4], 32 to 128 µg/mL (≈ 114 to 457 µM); with Klebsiella pneumoniae, 32 to 128 µg/mL (≈ 114 to 457 µM); against Enterococcus faecalis, 4 to 16 µg/mL (≈ 14.3 to 57.1 µM).

Regarding `O=c1ccc2ccccc2o1` [COUMARIN], the MIC was in the range of 2 to 8 µg/mL (≈ 13.7 to 54.7 µM) in the test with Staphylococcus aureus [2]; 2 to 8 µg/mL (≈ 13.7 to 54.7 µM) against Staphylococcus aureus [3]; 32 to 128 µg/mL (≈ 219 to 876 µM) against Escherichia coli [4]; 32 to 128 µg/mL (≈ 219 to 876 µM) against Klebsiella pneumoniae; 4 to 16 µg/mL (≈ 27.4 to 109 µM) with Enterococcus faecalis.

Take `COc1cc(C/C=C(/Cl)Cc2cc(O)cc(O)c2)c(OC)cc1Cl`: the MIC with Staphylococcus aureus [2] lay in the range of 2 to 8 µg/mL (≈ 5.42 to 21.7 µM); in the test with Staphylococcus aureus [3], 2 to 8 µg/mL (≈ 5.42 to 21.7 µM); against Escherichia coli [4] it was 32 to 128 µg/mL (≈ 86.7 to 347 µM); in the test with Klebsiella pneumoniae, 32 to 128 µg/mL (≈ 86.7 to 347 µM); against Enterococcus faecalis, 4 to 16 µg/mL (≈ 10.8 to 43.3 µM).

The IC50 is the midpoint of a concentration-inhibition curve. Regarding `CCC(CC)c1cc([C@H]2CN3CC[C@H]2C[C@@H]3CN)nc(-c2ccncc2)n1`, the MIC came out at 24.6 µM (≈ 8.99 µg/mL) in the test with Staphylococcus aureus [5] and 49.6 µM (≈ 18.1 µg/mL) against Escherichia coli [7]. In test [6], the IC50 was 37.5 µM.

As for `Oc1cc(O)c2c(c1)C/C(Cl)=C\Cc1cc(c(Cl)cc1O)Oc1c(O)cc(cc1O)C/C(Cl)=C\Cc1cc(c(Cl)cc1O)O2`, the MIC in the test with Staphylococcus aureus [2] is 2 to 8 µg/mL (≈ 2.95 to 11.8 µM); in the test with Staphylococcus aureus [3], 2 to 8 µg/mL (≈ 2.95 to 11.8 µM); in the test with Escherichia coli [4], 32 to 128 µg/mL (≈ 47.2 to 189 µM); in the test on Klebsiella pneumoniae it was 32 to 128 µg/mL (≈ 47.2 to 189 µM); with Enterococcus faecalis it was 4 to 16 µg/mL (≈ 5.9 to 23.6 µM).

The MIC99 is an inhibitory concentration at the 99% level, which refers to growth in some studies and to a panel of isolates in others. A lower MIC99 goes with greater potency. As for `CCCCOC(=O)Nc1cc2nc(C3CCCCC3)[nH]c2cc1N1CCCC1`, the MIC99 in [8] is 0.16 µg/mL (≈ 0.416 µM); in test [9] it was 0.63 µg/mL (≈ 1.64 µM); in test [10] it was 0.39 µg/mL (≈ 1.01 µM); in test [11], 0.31 µg/mL (≈ 0.806 µM).

Regarding `Oc1ccc(/C=C/c2cc(O)cc(O)c2)cc1` [RESVERATROL], the MIC lay in the range of 2 to 8 µg/mL (≈ 8.76 to 35 µM) in the test on Staphylococcus aureus [2]; 2 to 8 µg/mL (≈ 8.76 to 35 µM) against Staphylococcus aureus [3]; 32 to 128 µg/mL (≈ 140 to 561 µM) against Escherichia coli [4]; 32 to 128 µg/mL (≈ 140 to 561 µM) in the test with Klebsiella pneumoniae; 4 to 16 µg/mL (≈ 17.5 to 70.1 µM) in the test on Enterococcus faecalis.

Take `O=C(/C=C/c1ccc(O)c(O)c1)O[C@@H]1C[C@](O)(C(=O)O)C[C@@H](O)[C@H]1O` [CHLOROGENIC ACID]: the IC50 in test [12] came to 69.5 µM. Besides, the MIC against Staphylococcus aureus [2] lay in the range of 2 to 8 µg/mL (≈ 5.64 to 22.6 µM); in the test on Staphylococcus aureus [3], 2 to 8 µg/mL (≈ 5.64 to 22.6 µM); against Escherichia coli [4], 32 to 128 µg/mL (≈ 90.3 to 361 µM); against Klebsiella pneumoniae, 32 to 128 µg/mL (≈ 90.3 to 361 µM); against Enterococcus faecalis, 4 to 16 µg/mL (≈ 11.3 to 45.2 µM).

For `O=c1ccc2ccc(O)c(O)c2o1` [DAPHNETIN], the IC50 came out at 73 µM in test [12] and 57 µM in test [13]. For the same compound, the MIC against Staphylococcus aureus [2] is 2 to 8 µg/mL (≈ 11.2 to 44.9 µM); against Staphylococcus aureus [3], 2 to 8 µg/mL (≈ 11.2 to 44.9 µM); in the test with Escherichia coli [4], 32 to 128 µg/mL (≈ 180 to 719 µM); in the test on Klebsiella pneumoniae, 32 to 128 µg/mL (≈ 180 to 719 µM); against Enterococcus faecalis, 4 to 16 µg/mL (≈ 22.5 to 89.8 µM).

In [1], `O=C(Oc1cc(OC(=O)c2cc(O)cc(O)c2)c2ccccc2c1)c1cc(O)cc(O)c1` registered a Kd of 0.4 to 0.8 µM. Moreover, in the test on Bacillus subtilis, the MIC is 25 µM (≈ 10.8 µg/mL).

Regarding `CN(C)c1cc2[nH]c(C3CCCCC3)nc2cc1NC(=O)c1ccc(C(F)(F)F)cc1F`, the MIC99 in test [8] came to 0.24 µg/mL (≈ 0.535 µM); in test [15], 0.16 µg/mL (≈ 0.357 µM); in test [9], 0.31 µg/mL (≈ 0.691 µM); in test [10], 0.18 µg/mL (≈ 0.401 µM); in [11] it was 0.16 µg/mL (≈ 0.357 µM). For the same compound, the Activity was 3.9 - 5 log10CFU in test [14] and 5.7 - 6.3 log10CFU in test [16].

As to `O=c1ccc2ccc(O)cc2o1` [UMBELLIFERONE], the MIC in [17] came to 58 µg/mL (≈ 358 µM).

Take `COc1cc(/C=C/C(=O)O)ccc1O` [FERULATE]: the MIC is 2 to 8 µg/mL (≈ 10.3 to 41.2 µM) against Staphylococcus aureus [2]; 2 to 8 µg/mL (≈ 10.3 to 41.2 µM) with Staphylococcus aureus [3]; 32 to 128 µg/mL (≈ 165 to 659 µM) against Escherichia coli [4]; 32 to 128 µg/mL (≈ 165 to 659 µM) against Klebsiella pneumoniae; 4 to 16 µg/mL (≈ 20.6 to 82.4 µM) against Enterococcus faecalis.

Turning to `COc1cc2cc3c4cc(-c5ccc(-c6ccccc6)cc5)c(OC)c(OC)c4cc[n+]3c(C(C)C)c2cc1OC`, the MIC in the test on Staphylococcus aureus [2] was in the range of 2 to 8 µg/mL; with Staphylococcus aureus [3], 2 to 8 µg/mL; against Escherichia coli [4] it was 32 to 128 µg/mL; in the test on Klebsiella pneumoniae it was 32 to 128 µg/mL; against Enterococcus faecalis it was 4 to 16 µg/mL.
